Assay results taken from ChEMBL document CHEMBL6182863, “Discovery of novel rigid STING PROTAC degraders as potential therapeutics for acute kidney injury” (Eur J Med Chem, 2025).
Converted amounts (≈) assume the structure as drawn. The source made the active and inactive calls. The calls are words filed in the database; no cut-off is given here.

Key:
HK-2 [1] = test: Inhibition of STING downstream signal pathway in cisplatin stimulated human HK-2 cells assessed as reduction in p-IRF3 level by […] analysis; assay type: cell-based; conditions: dose 1.25-5 µM
Mus musculus [2] = test: Renoprotective activity against cisplatin-induced C57BL/6J mouse acute kidney injury model assessed as reduction in kidney weight at 25 to 50 mg/kg, ip measured after 72 hrs; assay type: functional, organism-based; conditions: dose 25-50 mg/kg
[3] = target: T1, Protein cereblon/Stimulator of interferon genes protein (Mus musculus) (UniProt Q3TBT3+Q8C7D2); test: In vivo inhibition of STING/TBK1/NF-kappaB signaling in C57BL/6J mouse assessed as decrease in serum IFN-beta level at 25 to 50 mg/kg, ip measured after 72 hrs by ELISA; assay type: functional, organism-based; conditions: dose 25-50 mg/kg
T1 sequence (Q3TBT3 whole entry, looked up): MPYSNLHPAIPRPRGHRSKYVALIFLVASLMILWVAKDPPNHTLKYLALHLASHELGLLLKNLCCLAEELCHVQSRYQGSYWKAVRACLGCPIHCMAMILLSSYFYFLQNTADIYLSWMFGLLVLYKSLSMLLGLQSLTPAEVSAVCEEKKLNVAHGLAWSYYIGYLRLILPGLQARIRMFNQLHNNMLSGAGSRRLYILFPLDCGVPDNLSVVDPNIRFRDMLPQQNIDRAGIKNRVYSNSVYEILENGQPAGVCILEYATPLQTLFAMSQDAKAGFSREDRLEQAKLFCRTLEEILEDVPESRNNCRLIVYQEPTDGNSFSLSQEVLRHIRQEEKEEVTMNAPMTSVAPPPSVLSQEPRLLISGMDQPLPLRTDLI
T1 sequence (Q8C7D2 whole entry, looked up): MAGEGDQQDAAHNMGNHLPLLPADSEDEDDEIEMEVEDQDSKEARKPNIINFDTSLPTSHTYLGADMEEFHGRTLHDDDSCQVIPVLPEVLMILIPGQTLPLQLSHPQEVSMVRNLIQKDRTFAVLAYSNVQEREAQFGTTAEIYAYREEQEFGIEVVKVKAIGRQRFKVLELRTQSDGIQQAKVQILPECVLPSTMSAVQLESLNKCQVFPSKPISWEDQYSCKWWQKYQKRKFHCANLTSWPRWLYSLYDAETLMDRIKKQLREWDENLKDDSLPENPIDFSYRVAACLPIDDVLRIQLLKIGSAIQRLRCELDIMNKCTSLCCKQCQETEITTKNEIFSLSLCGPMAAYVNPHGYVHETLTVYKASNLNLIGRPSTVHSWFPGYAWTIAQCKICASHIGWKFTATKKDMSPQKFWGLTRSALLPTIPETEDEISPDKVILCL

[4] = Acute toxicity in C57BL/6J mouse assessed as change in body weight at 88 mg/kg; assay type: organism-based; conditions: in vivo
THP-1 [5] = test: PROTAC activity at CRBN/STAT3 in human THP-1 cells assessed as induction of STAT3 degradation at 1.25 to 20 uM by Western blotting analysis; assay type: cell-based; conditions: dose 1.25-20 µM
Mus musculus [6] = test: Renoprotective activity against cisplatin-induced C57BL/6J mouse acute kidney injury model assessed as decrease in fecal occult blood at 25 to 50 mg/kg, ip measured after 72 hrs; assay type: functional, organism-based; conditions: dose 25-50 mg/kg
[7] = Metabolic stability in human liver microsomes assessed as half life; assay type: ADME, Microsome
[8] = AUC (0 to infinity) in male Sprague-Dawley rat at 2 mg/kg, iv measured after 12 hrs by LC-MS/MS analysis; assay type: ADME, organism-based; conditions: in vivo
[9] = target: Transcription factor p65 (Homo sapiens) (UniProt Q04206); test: Inhibition of NF-kappaB P65 nuclear translocation in human HK-2 cells at 0.25 to 5 uM by DAPI staining based fluorescence microscopic analysis; assay type: cell-based; conditions: dose 0.25-5 µM
Transcription factor p65 (Homo sapiens), sequence (Q04206 whole entry): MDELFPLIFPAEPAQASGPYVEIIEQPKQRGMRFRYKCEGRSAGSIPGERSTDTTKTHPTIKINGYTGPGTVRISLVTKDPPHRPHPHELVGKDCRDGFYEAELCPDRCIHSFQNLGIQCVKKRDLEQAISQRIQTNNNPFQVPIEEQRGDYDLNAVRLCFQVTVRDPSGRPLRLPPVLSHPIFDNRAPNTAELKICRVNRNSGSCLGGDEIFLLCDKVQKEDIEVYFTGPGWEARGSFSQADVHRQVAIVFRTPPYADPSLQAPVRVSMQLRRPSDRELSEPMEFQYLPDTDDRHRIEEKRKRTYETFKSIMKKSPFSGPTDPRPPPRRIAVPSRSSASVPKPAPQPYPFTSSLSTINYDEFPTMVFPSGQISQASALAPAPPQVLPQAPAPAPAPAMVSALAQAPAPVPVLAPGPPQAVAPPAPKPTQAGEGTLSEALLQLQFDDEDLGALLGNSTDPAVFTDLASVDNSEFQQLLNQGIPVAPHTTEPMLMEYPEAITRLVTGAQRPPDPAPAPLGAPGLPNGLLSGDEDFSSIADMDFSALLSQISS

[10] = Cmax in male Sprague-Dawley rat at 2 mg/kg, iv measured after 12 hrs by LC-MS/MS analysis; assay type: ADME, organism-based; conditions: in vivo
[11] = Acute toxicity in C57BL/6J mouse assessed as change in body weight at 30 mg/kg; assay type: organism-based; conditions: in vivo
HEK-293T = test: Cytotoxicity against human HEK293T cells assessed as reduction in cell viability at 0.5 to 120 uM incubated for 24 hrs by MTT assay; assay type: toxicity, cell-based; conditions: dose 0.5-120 µM
[12] = target: Protein cereblon/Stimulator of interferon genes protein (Homo sapiens, UniProt Q96SW2+Q86WV6); test: PROTAC activity at CRBN/STING in human THP-1 cells assessed as induction of STING degradation by Western blotting analysis; assay type: cell-based; conditions: time 1-48 hrs
Protein cereblon/Stimulator of interferon genes protein, sequence (Q86WV6 whole entry, looked up): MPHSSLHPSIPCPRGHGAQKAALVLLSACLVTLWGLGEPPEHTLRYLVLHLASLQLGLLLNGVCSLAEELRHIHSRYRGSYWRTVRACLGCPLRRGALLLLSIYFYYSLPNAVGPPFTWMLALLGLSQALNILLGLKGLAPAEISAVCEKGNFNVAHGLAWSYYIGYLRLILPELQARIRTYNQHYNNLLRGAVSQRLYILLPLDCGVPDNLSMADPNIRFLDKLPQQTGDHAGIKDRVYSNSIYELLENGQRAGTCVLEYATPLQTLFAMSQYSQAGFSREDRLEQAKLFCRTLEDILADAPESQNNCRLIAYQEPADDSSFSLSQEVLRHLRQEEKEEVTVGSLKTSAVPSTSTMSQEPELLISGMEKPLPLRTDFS
Protein cereblon/Stimulator of interferon genes protein, sequence (Q96SW2 whole entry, looked up): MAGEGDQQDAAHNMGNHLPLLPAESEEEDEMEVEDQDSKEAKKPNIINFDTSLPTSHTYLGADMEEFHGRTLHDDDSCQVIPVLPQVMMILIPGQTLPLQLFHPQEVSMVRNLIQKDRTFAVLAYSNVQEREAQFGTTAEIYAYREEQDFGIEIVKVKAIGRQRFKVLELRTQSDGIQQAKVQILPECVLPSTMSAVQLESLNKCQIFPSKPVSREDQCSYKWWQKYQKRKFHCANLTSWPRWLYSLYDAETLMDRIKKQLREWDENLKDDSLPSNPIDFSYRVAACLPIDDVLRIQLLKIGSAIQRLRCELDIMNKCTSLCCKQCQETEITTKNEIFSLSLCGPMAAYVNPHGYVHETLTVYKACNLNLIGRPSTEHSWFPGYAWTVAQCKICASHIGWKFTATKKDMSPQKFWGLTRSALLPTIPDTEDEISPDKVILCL

[13] = Cytotoxicity against rat BRL-3A cells assessed as reduction in cell viability at 0.5 to 120 uM incubated for 24 hrs by MTT assay; assay type: toxicity, cell-based; conditions: dose 0.5-120 µM
[14] = Acute toxicity in C57BL/6J mouse assessed as change in body weight at 61 mg/kg; assay type: organism-based; conditions: in vivo
Mus musculus [15] = test: Renoprotective activity against cisplatin-induced C57BL/6J mouse acute kidney injury model assessed as decrease in disease activity index score at 25 to 50 mg/kg, ip measured after 72 hrs; assay type: functional, organism-based; conditions: dose 25-50 mg/kg
THP-1 [16] = test: PROTAC activity at CRBN/LKB1 in human THP-1 cells assessed as induction of LKB1 degradation at 1.25 to 20 uM by Western blotting analysis; assay type: cell-based; conditions: dose 1.25-20 µM
[17] = Toxicity in cisplatin-induced acute kidney injury C57BL/6J mouse model assessed as morphological abnormality in spleen at 25 to 50 mg/kg, ip by H and E staining based analysis; assay type: organism-based; conditions: in vivo, dose 25-50 mg/kg
Mus musculus [18] = test: Renoprotective activity against cisplatin-induced C57BL/6J mouse acute kidney injury model assessed as survival rate at 25 mg/kg, ip measured after 72 hrs relative to control; assay type: functional
BV-2 = test: Cytotoxicity against mouse BV-2 cells assessed as reduction in cell viability at > 60 uM incubated for 24 hrs by MTT assay; assay type: toxicity, cell-based; conditions: bv-2, 24 h
Mus musculus [19] = test: Renoprotective activity against cisplatin-induced C57BL/6J mouse model assessed as reduction in renal injury administered intraperitoneally by H and E staining based analysis; assay type: functional, organism-based; conditions: dose 25-50 mg/kg, route ip
[20] = Acute toxicity in C57BL/6J mouse assessed as change in body weight at 179 mg/kg; assay type: organism-based; conditions: in vivo
[21] = Apparent volume of distribution in male Sprague-Dawley rat at 2 mg/kg, iv measured after 12 hrs by LC-MS/MS analysis; assay type: ADME, organism-based; conditions: in vivo, read-out: Vz
[22] = MRT (0 to t) in male Sprague-Dawley rat at 2 mg/kg, iv measured after 12 hrs by LC-MS/MS analysis; assay type: ADME, organism-based; conditions: in vivo
HK-2 [23] = test: Inhibition of STING downstream signal pathway in cisplatin stimulated human HK-2 cells assessed as reduction in P-P65 level by […] analysis; assay type: cell-based; conditions: dose 1.25-5 µM
[24] = Metabolic stability in human liver microsomes assessed as metabolic factor relative to control; assay type: ADME, Microsome
[25] = target: T1, Protein cereblon/Stimulator of interferon genes protein (Mus musculus); test: In vivo inhibition of STING/TBK1/NF-kappaB signaling in C57BL/6J mouse assessed as decrease in STING protein level in kidney at 25 to 50 mg/kg, ip measured after 72 hrs by Western blotting analysis; assay type: functional, organism-based; conditions: dose 25-50 mg/kg
[26] = Half life in male Sprague-Dawley rat at 2 mg/kg, iv measured after 12 hrs by LC-MS/MS analysis; assay type: ADME, organism-based; conditions: in vivo
[27] = Metabolic stability in human liver microsomes assessed as intrinsic clearance per gram of protein; assay type: ADME, Microsome
[28] = MRT (0 to infinity) in male Sprague-Dawley rat at 2 mg/kg, iv measured after 12 hrs by LC-MS/MS analysis; assay type: ADME, organism-based; conditions: in vivo
Mus musculus [29] = test: Renoprotective activity against cisplatin-induced C57BL/6J mouse acute kidney injury model assessed as decrease in body weight at 25 to 50 mg/kg, ip measured after 72 hrs; assay type: functional, organism-based; conditions: dose 25-50 mg/kg
[30] = Toxicity in cisplatin-induced acute kidney injury C57BL/6J mouse model assessed as morphological abnormality in liver at 25 to 50 mg/kg, ip by H and E staining based analysis; assay type: organism-based; conditions: in vivo, dose 25-50 mg/kg
Mus musculus [31] = test: Renoprotective activity against cisplatin-induced C57BL/6J mouse acute kidney injury model assessed as recovery of body weight administered intraperitoneally and measured after 72 hrs; assay type: functional, organism-based; conditions: dose 25-50 mg/kg, route ip
THP-1 [32] = test: PROTAC activity at CRBN/AMPK in human THP-1 cells assessed as induction of AMPK degradation at 1.25 to 20 uM measured after 24 hrs by Western blotting analysis; assay type: cell-based; conditions: dose 1.25-20 µM
[33] = Water solubility of the compound at 2 mg by HPLC analysis; assay type: physicochemical
[34] = Acute toxicity in C57BL/6J mouse assessed as change in body weight at 125 mg/kg; assay type: organism-based; conditions: in vivo
[35] = Acute toxicity in C57BL/6J mouse assessed as survival at 30 to 179 mg/kg; assay type: organism-based; conditions: in vivo, dose 30-179 mg/kg
[36] = Toxicity in cisplatin-induced acute kidney injury C57BL/6J mouse model assessed as morphological abnormality in heart at 25 to 50 mg/kg, ip by H and E staining based analysis; assay type: organism-based; conditions: in vivo, dose 25-50 mg/kg
H9c2 = test: Cytotoxicity against rat H9c2 cells assessed as reduction in cell viability at 0.5 to 120 uM incubated for 24 hrs by MTT assay; assay type: toxicity, cell-based; conditions: h9c2, 24 h, dose 0.5-120 µM

In the case of O=C(/C=C/C(=O)N1CCN(CC2CCN(c3cccc4c3C(=O)N(C3CCC(=O)NC3=O)C4=O)C2)CC1)Nc1ccc(NC(=O)c2ccc([N+](=O)[O-])o2)cc1 (centres undefined), the inhibition (HK-2 [1]) is reported as “Dose-dependent-effect”, the Activity (Mus musculus [2]) is reported as “Active” and the inhibition [3] is reported as “Active”. For the same compound, the Activity [4] was 24.9 g, the Activity (THP-1 [5]) was “inactive” and the Activity (Mus musculus [6]) was “Active”. For the same compound, the half-life [7] was 20.1 min, the AUC [8] was 0.73 µg/ml.hr and the inhibition [9] was “Active”. The Cmax [10] was 2390 ng/mL, the Activity [11] was 25.1 g and the Activity (HEK-293T) was “Non-toxic”. For the same compound, the Activity [12] was “Time-dependent-effect”, the Activity [13] was “Non-toxic” and the Activity [14] was 25.3 g. The Activity_index (Mus musculus [15]) was “Active”, the Activity (THP-1 [16]) was “inactive” and the Activity [17] was “Non-toxic”. The survival at 25 mg/kg (Mus musculus [18]) was 78%, the Activity (BV-2) was “Non-toxic” and the Activity (Mus musculus [19]) was “Dose-dependent-effect”. The Activity [20] was 22.8 g, the Vd [21] was 3.9 L/kg and the MRT last at 12 h [22] was 12 min. For the same compound, the inhibition (HK-2 [23]) was “Dose-dependent-effect”, the Activity [24] was 15.8% and the inhibition [25] was “Active”. The half-life [26] was 51.6 min, the CLint [27] was 104 mL/min/g and the MRT inf [28] was 12.6 min. For the same compound, the Activity (Mus musculus [29]) was “Active”, the Activity [30] was “Non-toxic” and the Activity (Mus musculus [31]) was “Dose-dependent-effect”. The Activity (THP-1 [32]) was “inactive”, the solubility [33] was 3.317 µg/mL (≈ 4.41 µM) and the Activity [34] was 23.4 g. The survival [35] was 100%, the Activity [36] was “Non-toxic” and the Activity (H9c2) was “Non-toxic”.
